Measurements as given in patent US7763588B2, “Method for increasing cognitive function and neurogenesis” (The Salk Institute for Biological Studies, priority 2003, dated 2010).
“Also recorded” adds a separate entry of the source.

Columns and labels:
female C57BL/6 mice [1] = assay: Morris water maze spatial learning; type: in vivo; conditions: Mars 20 mg/kg or PBN 30 mg/kg daily
Experimental: (§1) Ninety-six female C57BL/6 mice, ten weeks old were purchased from Harlan SD and housed individually with a reversed day/night cycle: lights on at 10 p.m. and off at 10 a.m. The mice were divided into six groups of 16 mice each: Control/Saline (CS) Control/PBN (CP), Control/Mars (CM), Runner/Saline (RS), Runner/PBN (RP) and Runner/Mars (RM). Runners were moved into a cage with a running wheel (Lafayette Instruments) for 4 hours per day, from 10 a.m. to 2 p.m. The mice received daily injections of saline, N-tert-Butyl-phenylnitrone (PBN, 30 mg/kg) or 3′- and 4′-methylated epicatechin 1:1 (Mars, 20 mg/kg).
(§2) On day 10, 7 animals from each group were given an overdose of anesthetics and perfused transcardially with cold 4% paraformaldehyde in 0.1 M PBS to study the effect of the drugs on cell proliferation. […] On day 38 the remaining mice were perfused.
To assess spatial learning the mice were trained with two trials per day over eight days on the Morris water maze as described by Morris, J. Neurosci. Methods 11: 47-60 (1984), which is incorporated herein by reference in its entirety. The platform was hidden 1 cm below the surface of water, made opaque with white non-toxic paint. The starting points were changed every day. Each trial lasted either until the mouse had found the platform or for a maximum of 40 seconds. All mice were allowed to rest on the platform for 10 seconds at the end of each trial. The latency to the platform, length of swim path and swim speed was recorded semi-automatically by a video tracking system (Ethovision, Noldus).
To assess memory function mice were trained in the water maze for 8 days with 2 trials per day between days 29-36 of the experiment. […] However, when measuring swim speed, there was also a significant difference between the groups (F(5,47)=3.37, p<0.01), raising the possibility that the RM and RP animals performed better due enhanced motor rather than cognitive skills.
To further investigate whether the RM and RP had improved learning, the swimming distance was analyzed for all trials. There was no significant difference between the groups in an overall analysis (F(5,47)=1.55, p=0.19).

dentate gyrus [2] = assay: BrdU-positive cell proliferation in the dentate gyrus (day 10); type: in vivo, mice; conditions: runners, Mars 20 mg/kg or PBN 30 mg/kg daily
Experimental: (§3) During the first nine days animals also received daily intraperitoneal BrdU injections (Sigma, St. Louis, Mo.); dissolved in 0.9% NaCl, filtered sterile at 0.2 μm, 50 μg/g body weight at 10 mg/ml) to label dividing cells.
as §2
To confirm neurogenesis, immunohistochemistry for BrdU was performed on a 1:6 series of free-floating 40-μm coronal sections that were pretreated for BrdU immunohistochemistry by denaturing DNA, as described previously by van Praag et al., Procl. Natl. Acad. Sci. USA 96: 13427-13431 (1999), which is incorporated herein by reference in its entirety. The antibody used was mouse anti-BrdU (Boehringer Mannheim, Indianapolis, Ind.) 1:400. […] Cells were counted at 40× using an upright brightfield microscope (Olympus).
BrdU-positive cells were analyzed in mice that were allowed to survive for the first 10 days of the experiment. At this time point cell proliferation, but not neurogenesis can be assessed, since it takes about a month for a newly born cell to become a neuron (van Praag et al., Nature 415: 1030-1034 (2002), which is incorporated herein by reference in its entirety).

female C57BL/6 mice [3] = assay: Running wheel activity (wheel revolutions); type: in vivo; conditions: runners, wheel about 4 hours daily after injection; Mars 20 mg/kg or PBN 30 mg/kg daily; compared with Runner/Saline
Experimental: as §1, with “mg/kg). Mice in the running groups were placed in cages with wheels after drug injection for about 4 hours daily.” for “mg/kg).”

dentate gyrus [4] = assay: Cell survival and neurogenesis in the dentate gyrus (BrdU labeling, day 38); type: in vivo; conditions: mice that exercise; Mars 20 mg/kg or PBN 30 mg/kg daily
Experimental: as §3, §2
To confirm neurogenesis, immunohistochemistry for BrdU was performed on a 1:6 series of free-floating 40-μm coronal sections that were pretreated for BrdU immunohistochemistry by denaturing DNA, as described previously by van Praag et al., Procl. Natl. Acad. Sci. USA 96: 13427-13431 (1999), which is incorporated herein by reference in its entirety. The antibody used was mouse anti-BrdU (Boehringer Mannheim, Indianapolis, Ind.) 1:400. To visualize the BrdU-labeled cells, staining for BrdU with the peroxidase method was used (ABC system, with biotinylated donkey anti-mouse antibodies and diaminobenzadine as chromogen; Vector Laboratories, Burlingame, Calif.). Cells were counted at 40× using an upright brightfield microscope (Olympus).
We are currently processing the tissue of the animals that survived for 38 days to assess the effects of the drugs and exercise on the number of newborn neurons. […]

In the case of `CC(C)(C)[N+]([O-])=Cc1ccccc1` [PBN, N-tert-Butyl-phenylnitrone], the swim speed (female C57BL/6 mice [1]; controls (no running wheel)) is reported as “no difference between the runners and CP; also recorded: significantly faster than CM”, the “spatial memory performance / learning” value (female C57BL/6 mice [1]; mice that exercise) is reported as “enhances spatial memory performance; also recorded: enhanced learning” and the “latency to the platform, analysis of variance per day” value (female C57BL/6 mice [1]; runners, 8 days of testing) is reported as “significantly shorter latencies from day 6 onwards”. The swim speed (female C57BL/6 mice [1]; runners) was “swam faster than CS and CM animals”, the “average number of BrdU-labeled cells per section (cell proliferation / cell genesis)” value (dentate gyrus [2]) was “the greatest increase; also recorded: more cell genesis in these animals than in all the other groups” and the “number of wheel revolutions” value (female C57BL/6 mice [3]) was “no difference between RS and RP”. For the same compound, the neurogenesis (dentate gyrus [4]) was “enhances neurogenesis”.
